How the values were obtained:
[1] = biological target: T1, human 15-LO (Homo sapiens, UniProt P16050); assay: Human Lysate 15-LO Assay (HUM15LO); format: biochemical; conditions: recombinant human 15-LO, 174 μM linoleic acid, 15 minutes at 4° C., 13-HODE quantitated
T1 construct: made in house; host or cells: Sf9 insect cells (baculovirus, Bac-to-Bac)
T1 sequence (P16050 1-662): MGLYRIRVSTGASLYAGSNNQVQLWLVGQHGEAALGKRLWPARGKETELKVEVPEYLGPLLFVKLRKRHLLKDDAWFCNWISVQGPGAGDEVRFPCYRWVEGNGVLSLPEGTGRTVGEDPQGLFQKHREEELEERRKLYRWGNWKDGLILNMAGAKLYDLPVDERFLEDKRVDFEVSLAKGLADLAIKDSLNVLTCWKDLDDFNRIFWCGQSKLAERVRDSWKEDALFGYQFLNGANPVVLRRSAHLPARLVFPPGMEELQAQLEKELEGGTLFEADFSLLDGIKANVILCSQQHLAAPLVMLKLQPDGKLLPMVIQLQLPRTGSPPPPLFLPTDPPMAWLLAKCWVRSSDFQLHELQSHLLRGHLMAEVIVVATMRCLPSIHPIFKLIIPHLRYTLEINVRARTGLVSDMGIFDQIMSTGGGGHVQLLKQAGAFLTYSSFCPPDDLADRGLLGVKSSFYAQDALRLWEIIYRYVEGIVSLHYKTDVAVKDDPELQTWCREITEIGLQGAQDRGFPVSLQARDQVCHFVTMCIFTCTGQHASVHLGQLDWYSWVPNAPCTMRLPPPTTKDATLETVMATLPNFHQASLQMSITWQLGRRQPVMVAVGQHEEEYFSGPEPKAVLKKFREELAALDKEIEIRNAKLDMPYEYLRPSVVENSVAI
Procedure: In the HUM15LO assay, a test compound of the present invention was incubated with 15-LO enzyme in the presence of the linoleic acid substrate. For example, a known amount of a test compound of the present invention, 100 μL of human 15-LO, and 174 μM linoleic acid in PBS containing 0.2% sodium cholate were incubated for 15 minutes at 4° C. The reaction was stopped with 100 μL of mobile phase and 10 μL of triethyl phosphite. […] 13-HODE was quantitated by comparing peak areas of individual samples with those from a standard curve generated using authentic 13-HODE. The test reaction is compared to a control reaction, which is identical to the test reaction except no test compound of the present invention is present Percent inhibition is calculated as the amount of 13-HODE produced by the test reaction divided by the amount of 13-HODE produced by the control reaction, expressed as a percent.
Human 15-LO was generated in a recombinant 15-lipoxygenase bacculovirus expression system, using Gibco/BRL/Life Technologies' Bac-to-Bac expression reagents; T4 DNA ligase, Kanamycin, Gentamicin, tetracycline, penicillin, streptomycin, Bluo-gal, IPTG, DH10Bac competent cells, SOC, LB medium, Sf-900 II SFM media, Sf9 insect cells, Cell Fectin, and EcoRI, BamHI and KpnI restriction enzymes.

[2] = biological target: T2, rabbit reticulocyte 15-LO (Oryctolagus cuniculus, UniProt P12530); assay: Rabbit Reticulocyte 15-LO Assay (H15LO); format: biochemical; conditions: 2 U rabbit reticulocyte 15-LO, 174 μM linoleic acid, 15 minutes at 4° C., 13-HODE quantitated
T2 construct: 15-LO is obtained from phenylhydrazine-treated rabbits and purified according to the method of Rapoport; from tissue; host or cells: reticulocytes of phenylhydrazine-treated rabbits
T2 sequence (P12530 1-663): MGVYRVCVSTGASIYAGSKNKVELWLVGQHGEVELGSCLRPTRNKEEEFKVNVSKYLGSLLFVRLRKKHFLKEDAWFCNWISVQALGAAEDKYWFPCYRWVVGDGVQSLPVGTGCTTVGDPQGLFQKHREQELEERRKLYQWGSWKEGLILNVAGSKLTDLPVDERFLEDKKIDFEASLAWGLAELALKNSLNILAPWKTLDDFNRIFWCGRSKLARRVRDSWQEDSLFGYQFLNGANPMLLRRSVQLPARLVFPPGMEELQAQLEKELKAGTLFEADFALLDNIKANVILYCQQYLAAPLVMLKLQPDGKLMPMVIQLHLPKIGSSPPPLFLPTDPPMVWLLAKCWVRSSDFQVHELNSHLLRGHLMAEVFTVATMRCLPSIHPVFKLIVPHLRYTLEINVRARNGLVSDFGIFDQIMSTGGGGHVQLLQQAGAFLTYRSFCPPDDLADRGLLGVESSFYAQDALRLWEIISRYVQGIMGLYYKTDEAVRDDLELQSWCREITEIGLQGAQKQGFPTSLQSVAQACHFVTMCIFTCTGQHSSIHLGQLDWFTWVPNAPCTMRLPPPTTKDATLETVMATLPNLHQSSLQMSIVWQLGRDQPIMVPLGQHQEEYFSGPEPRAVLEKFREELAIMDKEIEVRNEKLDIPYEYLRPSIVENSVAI
Procedure: In the H15LO assay, a test compound was incubated with 15-LO enzyme in the presence of the linoleic acid substrate. For example, 2 units (U) of rabbit reticulocyte 15-LO and 174 μM linoleic acid were incubated with a known amount of a test compound of the present invention for 15 minutes at 4° C. The total reaction volume was 100 μL in phosphate buffer saline (PBS) containing 0.2% sodium cholate. The reaction was stopped with 100 μL of mobile phase and […] of triethyl phosphite. […] 13-HODE was quantitated by comparing peak areas of individual samples with those from a standard curve generated using authentic 13-HODE.
15-LO is obtained from phenylhydrazine-treated rabbits and purified according to the method of Rapoport (Rapoport et al., European Journal of Biochemistry, 1979;96:545-561).

SMILES	melting point [°C]	IC50 [1] [nM]	IC50 [2] [nM]
COC(=O)COC(=O)NS(=O)(=O)Nc1cc(-c2cc3cc(F)c(F)cc3[nH]2)ccc1OC (hydrate or solvate) [Example 43, Acetic Acid, [[[[[[5-(5,6-difluoro-1H-indol-2-yl)-2-methoxyphenyl]amino]-sulfonyl]amino]carbonyl]oxy]-, Methyl ester]	190 to 192		
COc1ccc(-c2cc3cc(F)c(F)cc3[nH]2)cc1NS(=O)(=O)NC(=O)OC(C)(C)C (hydrate or solvate) [Example 53, Carbamic Acid, [[[5-(5,6-difluoro-indol-2-yl)-2-methoxyphenyl]amino]-sulfonyl]-, 1,1-dimethylethyl ester]	158 to 160		
COc1ccc(C(=O)Nc2ccc(F)c(F)c2)cc1NS(=O)(=O)NC(=O)Nc1ccc(C(C)(C)C)cc1 (hydrate or solvate) [Example 59, Benzamide, N-(3,4-difluorophenyl)-3-[[[[[[4-(1,1-dimethylethyl)phenyl]-amino]carbonyl]amino]sulfonyl]amino]-4-methoxy]	199 to 202		
COc1ccc(C(=O)Nc2ccc(F)c(F)c2)cc1NS(=O)(=O)NC(=O)Nc1cc(C(F)(F)F)cc(C(F)(F)F)c1 (hydrate or solvate) [Example 62, Benzamide, 3-[[[[[[3,5-bis(trifluoromethyl)phenyl]amino]-carbonyl]amino]-sulfonyl]amino]-N-(3,4-difluorophenyl)-4-methoxy]	175 to 178		
CCCCCCCOC(=O)NS(=O)(=O)Nc1cc(-c2cc3cc(F)c(F)cc3[nH]2)ccc1OC [Example 30, Carbamic Acid, [[[5-(5,6-difluoro-IH-indo-2-yl)2-methoxyphenyl]amino]-sulfonyl]-heptyl ester]	178 to 180	14	5
COc1ccc(-c2cc3cc(F)c(F)cc3[nH]2)cc1NS(=O)(=O)NC(=O)OC/C=C/c1ccccc1 [Example 32, Carbamic Acid, [[[5-(5,6-difluoro-IH-indol-2-yl)-2-methoxyphenyl]amino]sulfonyl]-(2E)-3-phenyl-2-propenyl ester]	149 to 152	16	6
COc1ccc(-c2cc3cc(F)c(F)cc3[nH]2)cc1NS(=O)(=O)NC(=O)OCc1ccccc1 [Example 36, Carbamic Acid, [[[5-(5,6-difluoro-IH-indol-2-yl)-methoxyphenyl]amino]-sulfonyl]-, Phenylmethyl ester]	177 to 180	13	12
COc1ccc(C(=O)Nc2ccc(F)c(F)c2)cc1NS(=O)(=O)NC(=O)OC(C)(C)C [Example 58, Carbamic acid, [[[5-[[(3,4-difluorophenyl)amino]carbonyl]-2-methoxyphenyl]amino]sulfonyl]-, 1,1-dimethylethyl ester]	193 to 194	751	
COc1ccc(C(=O)Nc2ccc(F)c(F)c2)cc1NS(=O)(=O)NC(=O)Nc1cccc(C(F)(F)F)c1 [Example 64, Benzamide, N-(3,4-difluorophenyl)methoxy-3-[[[[[[3-(trifluoromethyl)phenyl]amino]carbonyl]amino]sulfonyl]amino]]	198 to 200	24	

Results, then the molecule that gave them:

melting point [°C]	IC50 [1] [nM]	IC50 [2] [nM]	SMILES
206 to 208			COc1ccc(C(=O)Nc2ccc(F)c(F)c2)cc1NS(=O)(=O)NC(=O)Nc1cccc([N+](=O)[O-])c1 (hydrate or solvate) [Example 60, Benzamide, N-(3,4-difluorophenyl)-4-methoxy-3-[[[[[(3-nitrophenyl) -amino]carbonyl]amino]sulfonyl]amino]]
188 to 190			COc1ccc(C(=O)Nc2ccc(F)c(F)c2)cc1NS(=O)(=O)NC(=O)OCC(C)C [Example 23, Carbamic Acid, [[(5-[[(3,4-difluorophenyl)amino]carbonyl]-2-methoxyphenyl]amino]sulfonyl]-, 2-methylpropyl ester]
159 to 163	13	7	COc1ccc(C(=O)Nc2ccc(F)c(F)c2)cc1NS(=O)(=O)NC(=O)OC/C=C/c1ccccc1 [Example 33, Carbamic Acid, [[[5-[[(3,4-difluorophenyl)amino]carbonyl]-2-methoxyphenyl]amino]sulfonyl]-, (2E)-3-phenyl-2-propenyl ester]
173 to 176	76	19	COc1ccc(C(=O)Nc2ccc(F)c(F)c2)cc1NS(=O)(=O)NC(=O)OCc1ccccc1 [Example 42, Carbamic Acid, [[[5-[[(3,4-difluorophenyl)amino]carbonyl]-2-methoxyphenyl]amino]sulfonyl]-, Phenylmethyl Ester]
177 to 180	236		COC(=O)COC(=O)NS(=O)(=O)Nc1cc(C(=O)Nc2ccc(F)c(F)c2)ccc1OC [Example 44, Acetic Acid, [[[[[[5-[[(3,4-difluorophenyl)amino]carbonyl]-2-methoxyphenyl]-amino]sulfonyl]amino]carbonyl]oxy]-, Methyl ester]
178 to 179	830		COc1ccc(C(=O)Nc2ccc(F)c(F)c2)cc1NS(=O)(=O)NC(=O)OCCCO [Example 46, Carbamic Acid, [[[5-[[(3,4-difluorophenyl)amino]carbonyl]-2-methoxyphenyl]amino]sulfonyl]-, 3-hydroxypropyl ester]
179 to 182	306		CCOCCOC(=O)NS(=O)(=O)Nc1cc(C(=O)Nc2ccc(F)c(F)c2)ccc1OC [Example 48, Carbamic Acid, [[[5[[(3,4-difluorophenyl)amino]carbonyl]-2-methoxyphenyl]amino]sulfonyl]-, 2-ethoxyethyl ester]
203 to 205	341		COc1ccc(C(=O)Nc2ccc(F)c(F)c2)cc1NS(=O)(=O)NC(=O)OCCN1C(=O)c2ccccc2C1=O [Example 56, Carbamic Acid, [[[5-[[(3,4-difluorophenyl)amino]carbonyl]-2-methoxyphenyl]amino]sulfonyl]-, 2-(1,3-dihydro-1,3-dioxo-2H-isoindol-2-yl)ethyl ester]
195 to 198	359		COc1ccc(C(=O)Nc2ccc(F)c(F)c2)cc1NS(=O)(=O)NC(=O)Nc1ccc(Cl)cc1 [Example 68, Benzamide, 3-[[[[[(4-chlorophenyl)amino]carbonyl]amino]sulfonyl]amino]-N-(3,4-difluorophenyl)-4-methoxy]
